{
  "source": "patent US20180104059A1",
  "about": "“Delivery of Therapy to Living Tissue” (President and Fellows of Harvard College, priority 2015, published 2018)",
  "key": {"[1]": {"conditions": "in vivo; cited from earlier work"}, "[2]": {"assay": "Delivery of fluorescently tagged protein via thericardium port versus intraperitoneal, fluorescence at target site", "type": "in vivo, rat", "conditions": "after three hours", "text": "A bovine serum albumin solution tagged with a fluorescent molecule (Vivotag 800) was delivered via the port 18. […] The bioluminescence from the dose is shown for intraperitoneal delivery (at left) and for direct delivery via the thericardium 10 is shown in FIG. 28."}, "[3]": {"test_system": "canine model of myocardial infarction", "conditions": "ONO1301 alone or in combination with a VRD; cited from earlier work"}},
  "data": [
    {"compound": "CC(C)NCC(O)COc1ccc(CC(N)=O)cc1", "note": "(centres unmarked) [atenolol]", "values": [
      {"measurement": "efficacy with intrapericardial delivery compared to IV administration", "setting": "[1]", "value": "improved the efficacy"}
    ]},
    {"compound": "bovine serum albumin: bovine serum albumin solution tagged with a fluorescent molecule (Vivotag 800), model protein", "values": [
      {"measurement": "protein at the target site (fluorescence)", "setting": "[2]; delivered via the port", "value": "sustained concentration"},
      {"measurement": "protein at the target site (fluorescence)", "setting": "[2]; same amount injected intraperitoneally", "value": "undetectable quantity"}
    ]},
    {"compound": "O=C(O)COc1cccc2c1CCC=C2CCO/N=C(\\c1ccccc1)c1cccnc1", "note": "[ONO1301]", "values": [
      {"measurement": "HGF, VEGF and SDF-1 in the myocardium", "setting": "[3]", "value": "upregulation"},
      {"measurement": "myocardial vascularization", "setting": "[3]", "value": "increase in myocardial vascularization"}
    ]}
  ]
}
